In US20170051112A1, “RESIN COMPOSITION SUITABLE FOR PRINTING AND PRINTING METHOD UTILIZING THE SAME” (MONTANUNIVERSITÄT LEOBEN, priority 2014, published 2017):

Assays:
[1] = Maximum reaction speed by Photo Differential Scanning Calorimetry (Photo-DSC); details: yne monomer with TMPMP and 5 wt.-% photoinitiator mixture (comparatives without thiol); 1 W/cm^2, 50° C., nitrogen
Procedure: The maximum reaction speed of various monomers was evaluated by means of Photo Differential Scanning Calorimetry (Photo-DSC). 8 mg of the respective test mixtures consisting of yne monomer (as shown in the following table 1) and thiol monomer (trimethylpropane tri(3-mercaptopropionate), TMPMP) as well as 5 wt.-% of a photoinitiator mixture (2-hydroxy-2-methyl-1-phenyl propanone/diphenyl 2,4,6-trimethylbenzoyl phosphane oxide, 50 wt.-%/50 wt.-%) were provided. As comparative test mixtures, acrylate and methacrylate without thiol monomer, but together with 5 wt.-% of the same photoinitiator mixture were provided. The test mixtures were placed in a crucible of aluminium and irradiated with an Omnicure® lamp at an intensity of 1 W/cm^2 at 50° C. under a nitrogen gas atmosphere to thereby cure the test mixtures.
The times (tmax) for reaching the maximum reaction enthalpy indicate the reactivity of the photo-reactive systems. FIG. 1 is a graphical illustration of the test results (tmax) further showing the chemical structural formulas of the tested alkyne monomers and comparative (meth)acryl monomers.

[2] = system: L929 mice fibroblast cells; experiment: Cytotoxicity (residual protein content of the cells); type: cell-based; details: for EC50: concentration at which 50% of the L929 cells are damaged; for EC50 / Concentration limit: incubation 48 h; for Cytotoxicity, in words: L929 cells; for Concentration limit: toxicological concentration limit: reduction of protein content of L929 cells by more than 30% relative to negative control
Procedure: The cytotoxicity of various monomers was determined by a certified laboratory by means of L929 mice fibroblast cells. As a (toxic) positive control, Triton X 100 was added to L929 cells with a final concentration of 1% (v/v). As a (non-toxic) negative control, a cell culture medium was used.
After completion of the incubation, the residual protein content of the cells was determined. A reduction of the protein content from L929 cells by more than 30%, relative to the negative control, was evaluated as cytotoxic (which corresponds to the toxicological concentration limit). From this, the half maximal effective concentration (EC50), at which 50% of the cells are damaged, can be calculated.

[3] = Measurement of viscosity (cone-and-plate viscosimeter); type: physicochemical; details: for Viscosity at 25° C.: constant shear rate 300 s^-1, 25° C.; for Viscosity, in words: 25° C.
Procedure: For measuring the viscosity, an MC 200 cone-and-plate viscosimeter from Anton Paar GmbH (cone unit MK 22/50 mm, 10) was used. First, the shear rate was varied with a stepped slope and subsequently the viscosity was determined at a constant shear rate (300 s^−1) every 30 seconds. The measurement was carried out at 25° C.

Compound | tmax (time for reaching the maximum reaction enthalpy) [1] [s] | EC50 [2] [µM] | Viscosity at 25° C. [3] [mPa*s] | Cytotoxicity, in words [2] | Concentration limit [2] [µM] | Viscosity, in words [3] | EC50 ([2]; Mus musculus) [µM]
1,4-butanediol dibut-1-ynyl carbonate | 2.46 | – | – | – | – | – | –
1,4-butanediol dipropargyl carbonate | 3.00 | 550 | – | – | – | – | –
C=CC(=O)OCCCCOC(=O)C=C [1,4-butanediol diacrylate, reference compound] | 1.80 | – | 4.3 | particularly cytotoxic | <160 | – | –
CCC#COCCCCOC#CCC [1,4-butanediol dibut-1-ynyl ether] | 2.22 | – | 6.1 | excellently low cytotoxicity | >1100 | relatively low values | 2000
C=C(C)C(=O)OCCCCOC(=O)C(=C)C [1,4-butanediol dimethacrylate, reference compound] | 6.72 | – | 4.6 | particularly cytotoxic | <160 | – | –
C#CCOCCCCOCC#C [1,4-butanediol dipropargyl ether] | 5.12 | – | 4.7 | excellently low cytotoxicity | >1600 | relatively low values | 3000
CCC#COCCOC(COCC)OC#CCC (centres unmarked) [1,4-triethyleneglycol dibut-1-ynyl ether] | 2.46 | – | 17.2 | – | – | – | –
C#CCOC(=O)OCC(CC)(COC(=O)OCC#C)COC(=O)OCC#C [Trimethylolpropane tripropargyl carbonate] | 1.92 | – | – | – | – | – | –
